Measured values: patent publication US8546615B2, “Solid dapoxetine” (Symed Labs Limited, priority 2009, dated 2013)

Test: Storage/thermal stability of the solid form
Type: physicochemical
Conditions: stable for any period of time, no test described

SMILES	temperature below which the solid is stable
CN(C)[C@@H](CCOc1cccc2ccccc12)c1ccccc1 (racemic) [solid racemic dapoxetine]	below 45 °C
CN(C)[C@@H](CCOc1cccc2ccccc12)c1ccccc1 (single isomer, unassigned) [solid dapoxetine S enantiomer]	below 60 °C
